Reference: US20250144094A1 (Erasca, Inc., priority 2021, published 2025)

Target: Recombinant human ULK1 (1-649) (Homo sapiens (Human), UniProt O75385)
Experiment: ULK1 ADP Glo kinase activity assay (MBP substrate)
Conditions: 25° C., 40 minutes, read-out: ULK1 biochemical IC50
Protocol: Recombinant human ULK1 (1-649) protein expressed in Sf9 insect cells was obtained from SignalChem (Vancouver, BC), catalog #U01-11G. Active kinase was purified via N-terminal GST tag to >85% purity.
ADP GLO Kinase Assay Reagents were obtained from Promega Corp (Madison, WI), catalog #V9104.
MBP (myelin basic protein) substrate, bovine, purified, was obtained from Sigma (St. Louis, MO), catalog #M1891.
ULK1 inhibitor potency was determined using the luminescent ADP Glo Kinase Assay (Promega), a universal ADP detection system that measures kinase activity by quantifying the amount of ADP produced during a kinase reaction. ULK1 kinase reactions are performed in a standard 96-well microplate (20 uL reaction volume) at 25° C. for 40 minutes in the presence or absence of the test compound (12-point dilution series starting at 10 uM). Addition of MBP substrate and ATP initiates the kinase reaction.
The standard ADP Glo assay is performed in two steps. In step one, following the kinase reaction, an equal volume of ADP-Glo™ Reagent (20 uL) is added to terminate the kinase reaction and deplete the remaining ATP. In the second step, the Kinase Detection Reagent (10 uL) is added to simultaneously convert ADP to ATP and allow the newly synthesized ATP to be measured using a luciferase/luciferin reaction. Step two of the ADP Glo assay is performed in a white 384-well plate (20 uL final volume). Thirty minutes after the addition of the Detection reagent, light generated from the luciferase reaction is measured (1 second exposure) using a microplate compatible luminometer (CLARIOstar, BMG Labtech).
Inhibition of ULK1 kinase activity is determined for each test compound by comparison to DMSO only control wells. Inhibitor IC50 was calculated by plotting the change in luminescence after 30 minutes (response) versus inhibitor concentration (in log molar) then applying the four-parameter variable slope curve fit (GraphPad Prism). Inhibition of ULK1 in biochemical assay is found in Table 3.

Sequence of Recombinant human ULK1 (1-649) (O75385 1-649): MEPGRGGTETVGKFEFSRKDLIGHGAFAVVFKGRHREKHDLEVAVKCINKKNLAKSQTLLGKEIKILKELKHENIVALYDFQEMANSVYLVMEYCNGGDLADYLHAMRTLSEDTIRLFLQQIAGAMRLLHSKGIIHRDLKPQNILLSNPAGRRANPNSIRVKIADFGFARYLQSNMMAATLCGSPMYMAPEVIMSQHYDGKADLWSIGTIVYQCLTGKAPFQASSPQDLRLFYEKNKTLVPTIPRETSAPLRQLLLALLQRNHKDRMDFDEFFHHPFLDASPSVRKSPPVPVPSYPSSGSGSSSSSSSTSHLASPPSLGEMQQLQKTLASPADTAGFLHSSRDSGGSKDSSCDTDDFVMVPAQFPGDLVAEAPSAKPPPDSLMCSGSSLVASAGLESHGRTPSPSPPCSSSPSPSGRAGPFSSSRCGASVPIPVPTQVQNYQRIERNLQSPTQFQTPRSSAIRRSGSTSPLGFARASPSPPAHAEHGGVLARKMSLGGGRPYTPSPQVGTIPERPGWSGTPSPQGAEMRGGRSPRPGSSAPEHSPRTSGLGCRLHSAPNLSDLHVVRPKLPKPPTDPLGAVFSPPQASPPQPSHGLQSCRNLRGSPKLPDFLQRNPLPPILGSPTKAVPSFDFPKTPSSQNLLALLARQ

Row | SMILES | IC50 [nM]
1 | CCN1CCc2sc(-c3nc(Nc4cc5c(cc4Cl)CNCC5)ncc3C(F)(F)F)cc2C1=O [Example 22, 2-(2-((7-chloro-1,2,3,4-tetrahydroisoquinolin-6-yl)amino)-5-(trifluoromethyl)pyrimidin-4-yl)-5-ethyl-6,7-dihydrothieno[3,2-c]pyridin-4(5H)-one] | ≤ 10
2 | CN(C)C(=O)c1ccc(-c2nc(Nc3cc4c(cc3Cl)CNCC4)ncc2C(F)(F)F)s1 [Example 3, 5-(2-((7-chloro-1,2,3,4-tetrahydroisoquinolin-6-yl)amino)-5-(trifluoromethyl)pyrimidin-4-yl)-N,N-dimethylthiophene-2-carboxamide] | ≤ 10
3 | O=C1NCCCc2sc(-c3nc(Nc4cc5c(cc4Cl)CNCC5)ncc3C(F)(F)F)cc21 [Example 28, 2-(2-((7-Chloro-1,2,3,4-tetrahydroisoquinolin-6-yl)amino)-5-(trifluoromethyl)pyrimidin-4-yl)-5,6,7,8-tetrahydro-4H-thieno[3,2-c]azepin-4-one] | ≤ 10
4 | CCc1cc2c(cc1Nc1ncc(C(F)(F)F)c(-c3cc(C(N)=O)cs3)n1)CCNC2 [Example 9, 5-(2-((7-ethyl-1,2,3,4-tetrahydroisoquinolin-6-yl)amino)-5-(trifluoromethyl)pyrimidin-4-yl)thiophene-3-carboxamide] | ≤ 10
5 | O=c1[nH]ncc2sc(-c3nc(Nc4cc5c(cc4Cl)CNCC5)ncc3C(F)(F)F)cc12 [Example 24, 2-(2-((7-Chloro-1,2,3,4-tetrahydroisoquinolin-6-yl)amino)-5-(trifluoromethyl)pyrimidin-4-yl)thieno[2,3-d]pyridazin-4(5H)-one] | 10 to 50
6 | NC(=O)c1csc(-c2nc(Nc3cc4c(cc3Cl)CN(C3CNC3)CC4)ncc2C(F)(F)F)c1 [Example 5, 5-(2-((2-(azetidin-3-yl)-7-chloro-1,2,3,4-tetrahydroisoquinolin-6-yl)amino)-5-(trifluoromethyl)pyrimidin-4-yl)thiophene-3-carboxamide] | ≤ 10
7 | CCc1cc(N2CCN(C)CC2)ccc1Nc1ncc(C(F)(F)F)c(-c2cc3c(s2)CCNC3=O)n1 [Example 39, 2-(2-((2-ethyl-4-(4-methylpiperazin-1-yl)phenyl)amino)-5-(trifluoromethyl)pyrimidin-4-yl)-6,7-dihydrothieno[3,2-c]pyridin-4(5H)-one] | ≤ 10
8 | CNC(=O)c1csc(-c2nc(Nc3cc4c(cc3Cl)CNCC4)ncc2C(F)(F)F)c1 [Example 6, 5-(2-((7-chloro-1,2,3,4-tetrahydroisoquinolin-6-yl)amino)-5-(trifluoromethyl)pyrimidin-4-yl)-N-methylthiophene-3-carboxamide] | 50 to 100
9 | CN1CCc2cc(Cl)c(Nc3ncc(C(F)(F)F)c(-c4cc5c(s4)CCCNC5=O)n3)cc2C1 [Example 49, 2-(2-((6-chloro-2-methyl-1,2,3,4-tetrahydroisoquinolin-7-yl)amino)-5-(trifluoromethyl)pyrimidin-4-yl)-5,6,7,8-tetrahydro-4H-thieno[3,2-c]azepin-4-one] | ≤ 10
10 | NC(=O)c1csc(-c2nc(Nc3cc4c(cc3Cl)CNC4)ncc2C(F)(F)F)c1 [Example 7, 5-(2-((6-chloroisoindolin-5-yl)amino)-5-(trifluoromethyl)pyrimidin-4-yl)thiophene-3-carboxamide] | ≤ 10
11 | O=C1NCCCc2sc(-c3nc(Nc4cc5c(cc4Cl)CCNC5)ncc3C(F)(F)F)cc21 [Example 46, 2-(2-((6-chloro-1,2,3,4-tetrahydroisoquinolin-7-yl)amino)-5-(trifluoromethyl)pyrimidin-4-yl)-5,6,7,8-tetrahydro-4H-thieno[3,2-c]azepin-4-one] | ≤ 10

Next, values leading:

Row | IC50 [nM] | SMILES
12 | ≤ 10 | O=S1(=O)NCCOc2sc(-c3nc(Nc4cc5c(cc4Cl)CNCC5)ncc3C(F)(F)F)cc21 [Example 85, 7-chloro-N-[4-(1,1-dioxo-3,4-dihydro-2H-thieno[2,3-b][1,4,5]oxathiazepin-7-yl)-5-(trifluoromethyl)pyrimidin-2-yl]-1,2,3,4-tetrahydroisoquinolin-6-amine]
13 | ≤ 10 | CS(=O)(=O)c1csc(-c2nc(Nc3ccc4c(c3)CNCC4)ncc2C(F)(F)F)c1 [Example 101, N-[4-(4-methanesulfonylthiophen-2-yl)-5-(trifluoromethyl)pyrimidin-2-yl]-1,2,3,4-tetrahydroisoquinolin-7-amine]
14 | ≤ 10 | CS(=O)(=O)c1csc(-c2nc(Nc3cn(C4CCNCC4)nc3C3CC3)ncc2C(F)(F)F)c1 [Example 128, N-(3-Cyclopropyl-1-(piperidin-4-yl)-1H-pyrazol-4-yl)-4-(4-(methylsulfonyl)thiophen-2-yl)-5-(trifluoromethyl)pyrimidin-2-amine]
15 | ≤ 10 | CS(=O)(=O)c1cc(-c2nc(Nc3cc4c(cc3Cl)CNCC4)ncc2C(F)(F)F)sc1C(N)=O [Example 59, 5-(2-((7-chloro-1,2,3,4-tetrahydroisoquinolin-6-yl)amino)-5-(trifluoromethyl)pyrimidin-4-yl)-3-(methylsulfonyl)thiophene-2-carboxamide]
16 | ≤ 10 | COCCS(=O)(=O)c1csc(-c2nc(Nc3cc4c(cc3Cl)CNCC4)ncc2C(F)(F)F)c1 [Example 52, 7-chloro-N-(4-(4-((2-methoxyethyl)sulfonyl)thiophen-2-yl)-5-(trifluoromethyl)pyrimidin-2-yl)-1,2,3,4-tetrahydroisoquinolin-6-amine]
17 | 50 to 100 | CS(=O)(=O)c1csc(-c2nc(Nc3cc(C4CNC4)ccc3Cl)ncc2C(F)(F)F)c1 [Example 121, N-(5-(azetidin-3-yl)-2-chlorophenyl)-4-(4-(methylsulfonyl)thiophen-2-yl)-5-(trifluoromethyl)pyrimidin-2-amine]
18 | ≤ 10 | CN1CCc2cc(Nc3ncc(C(F)(F)F)c(-c4cc5c(s4)CN(C)CCS5(=O)=O)n3)c(Cl)cc2C1 [Example 109, 7-chloro-2-methyl-N-[4-(4-methyl-1,1-dioxo-3,5-dihydro-2H-thieno[2,3-f][1,4]thiazepin-7-yl)-5-(trifluoromethyl)pyrimidin-2-yl]-3,4-dihydro-1H-isoquinolin-6-amine]
19 | ≤ 10 | O=S1(=O)NCCCc2sc(-c3nc(Nc4cc5c(cc4Cl)CNCC5)ncc3C(F)(F)F)cc21 [Example 84, 7-(2-((7-chloro-1,2,3,4-tetrahydroisoquinolin-6-yl)amino)-5-(trifluoromethyl)pyrimidin-4-yl)-2,3,4,5-tetrahydrothieno[2,3-f][1,2]thiazepine 1,1-dioxide]
20 | 100 to 500 | CS(=O)(=O)c1csc(-c2nc(Nc3cc4c(cc3Cl)CN(CC(F)(F)F)CC4)ncc2C(F)(F)F)c1 [Example 108, 7-chloro-N-[4-(4-methylsulfonyl-2-thienyl)-5-(trifluoromethyl)pyrimidin-2-yl]-2-(2,2,2-trifluoroethyl)-3,4-dihydro-1H-isoquinolin-6-amine]
21 | ≤ 10 | CN1CCc2ccc(Nc3ncc(C(F)(F)F)c(-c4cc(S(C)(=O)=O)cs4)n3)cc2C1 [Example 102, N-[4-(4-methanesulfonylthiophen-2-yl)-5-(trifluoromethyl)pyrimidin-2-yl]-2-methyl-1,2,3,4-tetrahydroisoquinolin-7-amine]
22 | ≤ 10 | Cc1cnc(Nc2cc3c(cc2Cl)CNCC3)nc1-c1cc(S(C)(=O)=O)cs1 [Example 94, 7-chloro-N-(5-methyl-4-(4-(methylsulfonyl)thiophen-2-yl)pyrimidin-2-yl)-1,2,3,4-tetrahydroisoquinolin-6-amine]
